The values below come from US4177292A, “Novel 5H-benzocyclohepten-7-amines” (Roussel Uclaf, priority 1977, dated 1979).

Where a name gives a salt, the structure may show the parent alone. Read-outs that look alike come from different tables or passages of the source. Some results are limits rather than exact numbers.

The nature of series [1]: Acute toxicity. Conditions: mouse, in vivo, ip; mice, intraperitoneal, determined 48 hours later; read-out: DL50. The procedure:
The DL50 dose which kills 50% of mice after intraperitoneal administration of the test compound was determined 48 hours later and the DL50 for the compounds is reported in Table III.

For series [2], the system named is serotonine (5HT) uptake in synaptosomes. As to the kind of experiment: Inhibition of Serotonine uptake in vitro. In kind it is biochemical. Conditions: impure synaptosomes from entire brain of female rat 19 to 21 days old; 37° C., 5 minutes; 14C-5HT 10^-7 M; read-out: Inhibiting concentration IC50 of 14C-5HT uptake. The procedure:
(§1) The inhibition of serotonine (5HT) uptake was measured in impure synaptosomes prepared from the entire brain of a female rat 19 to 21 days old using the technique of Kannengiesser et al [Biochemical Pharmacology, Vol. 22, (1973) p. 73].

The subject of series [3] is uptake of 14C-5HT in synaptosomes. As to the kind of experiment: Inhibition of Serotonine uptake in vivo (synaptosomes prepared after intraperitoneal administration). Conditions: Rattus norvegicus, ip, 5 mg/kg intraperitoneal, female rats 19 to 21 days old. The procedure: as §1
The tested products were intraperitoneally administered to a groups of female rats 19 to 21 days old at doses of 5 mg/kg. After 1 hour or 24 hours, the brain was removed and synaptosomes were prepared and placed in an incubator in the presence of 14 C-5HT as indicated in the previous test.

The subject of series [4] is dogs. As to the kind of experiment: Anorexigenic activity. It counts as in vivo, dog. Conditions: oral (gelules), 10 mg/kg, starved about 15 hours. Here is the method:
This activity was determined on dogs by the method of Adams et al [J. Pharm. Sci., Vol. 53 (1964), p. 1405] in which the animals received as food exclusively U.A.R. mash with a base of 800 g per day per dog. On the day of the test of a presumed anorexigenic agent, the daily individual ration of the dogs was divided into approximately equal small balls (15 to 20 g) which were offered to the dogs every 10 minutes for 8 hours. Normally the animals regularly accept the small balls successively when they are presented. […] The hourly number of refusal is determined in the animals treated with the same dose and is expressed as a percentage of the total hourly number of small balls presented per […]. At the start of the test, the animals had been starved for about 15 hours although they had drinking water available. They are deprived of water during the test. The test was effected with a group of 7 bastard dogs both male and female weighing between 11.4 and 14 kg (12.1 kg average) selected as a function of their response to a weak dose (5 mg/kg) of fenfluramine.

The mark [5] stands for this setting: 1 hour, read-out: % inhibition of 14C-5HT uptake after 1 Hour.
The mark [6] stands for this setting: 24 hours, read-out: % inhibition of 14C-5HT uptake after 24 Hours.

With `CN(C)[C@H]1CCc2ccc(Cl)cc2[C@@H](Oc2ccc([N+](=O)[O-])cc2)C1` (relative stereo) [Example 19, cis N,N-dimethyl-3-chloro-5-[4-nitrophenoxy]-6,7,8,9-tetrahydro-5H-benzocyclohepten-7-amino hydrochloride], the LD50 at 48 h in series [1] was above 200 mg/kg. The IC50 in series [2] turned out to be 7100 nM.

As to `CN(C)[C@H]1CCc2ccccc2[C@@H](Oc2ccc([N+](=O)[O-])c(C(F)(F)F)c2)C1` (relative stereo) [Example 17, cis-N,N-dimethyl-5-[4-nitro-3-trifluoromethylphenoxy]-6,7,8,9,-tetrahydro-5H-benzocyclohepten-7-amine], the LD50 at 48 h in series [1] was above 400 mg/kg. In addition, the IC50 in series [2] was 950 nM.

For `COc1ccc(O[C@@H]2C[C@H](N(C)C)CCc3ccccc32)cc1` (relative stereo) [Example 11, cis N,N-dimethyl-5-[4-methoxyphenoxy]-6,7,8,9-tetrahydro-5H-benzocyclohepten-7-amine hydrochloride], the IC50 in series [2] was found to be 1300 nM.

For the compound `CN(C)[C@@H]1CCc2ccccc2[C@H](Oc2ccc(Br)cc2)C1.Cl` (relative stereo) [Example 7, cis N,N-dimethyl-5-[4-bromophenoxy]-6,7,8,9-tetrahydro-5H-benzocyclohepten-7-amine hydrochloride], the LD50 at 48 h in series [1] is 150 mg/kg. Also, the IC50 in series [2] was found to be 320 nM. In addition, the inhibition (commonly the drop in the measured response relative to a control, in per cent) at 5 mg/kg in series [3] (setting [5]) turned out to be 40 ± 3%; in series [3] (setting [6]) it was 65 ± 2%.

For the compound `CN(C)[C@@H]1CCc2ccccc2[C@H](Oc2ccc(N)cc2)C1.Cl.Cl` (relative stereo) [Example 2, cis N,N-dimethyl-5-[4-aminophenoxy]-6,7,8,9-tetrahydro-5H-benzocycloheptene-7-amine dihydrochloride], in series [1], the LD50 at 48 h amounted to 200 mg/kg. Moreover, the IC50 in series [2] is 14000 nM.

Take `CN(C)[C@H]1CCc2ccccc2[C@@H](Oc2ccc([N+](=O)[O-])cc2)C1` (relative stereo) [Example 1, fumarate of cis N,N-dimethyl-5-[4-nitrophenyloxy]-6,7,8,9-tetrahydro-5H-benzocycloheptene-7-amine]: the LD50 at 48 h in series [1] is 100 mg/kg. In addition, the “oral anorexigenic activity (refusal of food balls)” value in series [4] is “important oral anorexigenic activity”. Further, in series [2], the IC50 came to 340 nM. The inhibition at 5 mg/kg was found to be 58 ± 4% in series [3] (setting [5]) and 67 ± 2% in series [3] (setting [6]).

In the case of `COc1ccccc1O[C@@H]1C[C@H](N(C)C)CCc2ccccc21` (relative stereo) [Example 10, cis N,N-dimethyl-5-[2-methoxyphenoxy]-6,7,8,9-tetrahydro-5H-benzocyclohepten-7-amine hydrochloride], the IC50 in series [2] stood at 1300 nM.

Turning to `CN(C)[C@@H]1CCc2ccccc2[C@H](Oc2ccccc2[N+](=O)[O-])C1.Cl` (relative stereo) [Example 8, cis N,N-dimethyl-5-[2-nitrophenoxy]-6,7,8,9-tetrahydro-5H-benzocyclohepten-7-amine hydrochloride], in series [1], the LD50 at 48 h is 150 mg/kg. Besides, the IC50 in series [2] was found to be 4000 nM.

For the compound `CN[C@@H]1CCc2ccccc2[C@H](Oc2ccc(C(F)(F)F)cc2)C1.Cl` (relative stereo) [Example 6, cis N-methyl-5-[4-trifluoromethylphenoxy]-6,7,8,9-tetrahydro-5H-benzocycloheptene-7-amine hydrochloride], the LD50 at 48 h in series [1] was 400 mg/kg. The IC50 in series [2] stood at 1900 nM. Moreover, the figures for the inhibition at 5 mg/kg in series [3] (setting [5]) and in series [3] (setting [6]) were 41 ± 3% and 61 ± 3%, respectively.

With `CN(C)[C@H]1CCc2ccc(Cl)cc2[C@H](Oc2ccc([N+](=O)[O-])cc2)C1.Cl` (relative stereo) [Example 18, trans N,N-dimethyl-3-chloro-5-[4-nitrophenoxy]-6,7,8,9-tetrahydro-5H-benzocyclohepten-7-amine hydrochloride], the LD50 at 48 h in series [1] came to 100 mg/kg. In series [2], the IC50 stood at 1500 nM.

For the compound `CN(C)[C@H]1CCc2ccccc2[C@H](Oc2ccc([N+](=O)[O-])cc2)C1.Cl` (relative stereo) [Example 4, trans N,N-dimethyl-5-[4-nitrophenoxy]-6,7,8,9-tetrahydro-5H-benzocycloheptene-7-amine hydrochloride], in series [1], the LD50 at 48 h is 100 mg/kg. Besides, the IC50 in series [2] is 83 nM. Besides, the inhibition at 5 mg/kg in series [3] (setting [5]) worked out at 61 ± 2%; in series [3] (setting [6]), 39 ± 4%.

Consider `CN(C)[C@@H]1CCc2ccccc2[C@H](Oc2ccc(C(F)(F)F)cc2)C1.Cl` (relative stereo) [Example 3, cis N,N-dimethyl-5-[4-trifluoromethylphenoxy]-6,7,8,9-tetrahydro-5H-benzocycloheptene-7-amine hydrochloride], for which the LD50 at 48 h in series [1] is 150 mg/kg. Also, in series [2], the IC50 amounted to 760 nM.

Consider `CN(C)[C@@H]1CCc2ccccc2[C@H](Oc2ccccc2C(F)(F)F)C1.Cl` (relative stereo) [Example 5, cis N,N-dimethyl-5-[2-trifluoromethylphenoxy]-6,7,8,9-tetrahydro-5H-benzocycloheptene-7-amine hydrochloride], for which the LD50 at 48 h in series [1] was 200 mg/kg. For the same compound, in series [2], the IC50 turned out to be 2300 nM.
